The values that follow come from patent US12351583B2, “Triazolopyrimidines based on thymine nucleobase and methods for producing them” (TERA STONE CO., LTD, priority 2019, dated 2025).

Data set [1] deals with KB cells (human nasopharyngeal carcinoma-derived). The data set can be described thus: MTT cell proliferation inhibition assay, KB cells. It counts as cell-based. Particulars: for IC50: MTT assay, cultured 3 days, probit analysis, read-out: Inhibitory concentration against tumor cell lines in vitro IC50, KB; for cell proliferation inhibitory activity compared with 5-FU, KB cells: comparison of IC50 with control drug 5-FU. On the procedure:
(§1) Regarding the synthesized triazolopyrimidine compounds, their cell proliferation inhibitory activities, as an index of antitumor acttivity, were examined. The test was performed by MTT assay (T. Mosmann, J. Immunol. Methods, 65, 55 (1983); M. B. Hansen, S. E. Nielsen and K. Berg, J. Immunol. Methods, 119, 203 (1989), which are incorporated by reference in their entirety.), and the cancer cells tested were CCRF-HSB-2 cells (human acute lymphoblastic leukemia) and KB cells (human […]). Cytarabine (Ara-C, cytarabine: 4-amino-1-β-D-arabinofuranosyl-2(1H)-one) and 5-fluorouracil (5-FU, 5-fluorouracil) were used as control drugs, which are antimetabolite anticancer agents used for, for example, acute leukemia and/or gastrointestinal cancer.
(§2) Human acute lymphoblastic leukemia cells (T-cells) CCRF-HSB-2 and human nasopharyngeal carcinoma-derived KB cells were cultured in RPMI 1640 medium supplemented with 10% fetal bovine serum.
(§3) Test agents were dissolved in dimethyl sulfoxide to become a concentration of 10 mg/ml and stored at 4° C. These solutions were diluted with MEM-Hanks medium and used for the assay.
(§4) • 1. 50 μl of the agent solution or MEM-Hanks medium was pre-filled in a 96-well plate. • 2. Cells in the logarithmic growth phase were harvested, and suspension of the cells was prepared such that the cell density is 1×10^5 cells/ml (5,000 cells/50 μl/well) and the serum concentration is 20%. The suspension 50 μl was seeded to each well. The cells were cultured in a carbon dioxide incubator at 37° C. for 3 days. • 3. After completion of the culture, 10 μl of MTT solution*(5 mg/ml in PBS-) was added to each well, and the cells were further cultured at 37° C. for 4 hours in a carbon dioxide incubator. *MTT solution: 1 g of MTT (Sigma M-2128) was dissolved in 200 ml of PBS-under light shielding, and the solution was filtrated using a 0.45 μm filter, and then stored at 4° C. If insoluble components precipitated during storage, filtration was performed again. • 4. After completion of the culture, 100 μl of 0.02 N HCl/50% N,N-dimethylformamide/20% SDS was added and stirred in each well to dissolve produced formazan. Its absorbance at 570 nm (test wavelength) and 690 nm (reference wavelength) was measured by a microplate reader (Tosoh MPR4Ai) and the proliferation inhibition rate was determined by the following formula. Inhibition rate (%)=(1−Tx/Cx)×100
(§5) Tx: Absorbance of wells containing sample
(§6) Cx: Absorbance of wells containing no sample (control) • 5. Inhibitory concentration showing 50% inhibition (IC50) of samples were determined by probit analysis using a computer software. [Evaluation]
(In general: Tetrazolium dyes change colour on reduction, which living cells bring about.)

The subject of data set [2] is CCRF-HSB-2 cells (human acute lymphoblastic leukemia). As to the kind of experiment: MTT cell proliferation inhibition assay, CCRF-HSB-2 cells. It counts as cell-based. The settings on record: for IC50: MTT assay, cultured 3 days, probit analysis, read-out: Inhibitory concentration against tumor cell lines in vitro IC50, CCRF-HSB-2; for cell proliferation inhibitory activity compared with 5-FU, CCRF-HSB-2 cells: comparison of IC50 with control drug 5-FU. On the procedure:
as §1, §2, §3, §4, §5, §6

Read-outs that look alike come from different tables or passages of the source.

In the case of `COc1cc(OC)c(-c2nc3c(C)c[nH]c(=O)n3n2)c(OC)c1` [Compound 5e], the IC50 in data set [1] and in data set [2] was greater than 100 µM in each case.
`Cc1ccc(-c2nc3c(C)c[nH]c(=O)n3n2)cc1` [Compound 5c]: the IC50 in data set [1] was found to be 42.9 µM; in data set [2], 63.1 µM.
In the case of `Cc1c[nH]c(=O)n2nc(-c3ccc([N+](=O)[O-])cc3)nc12` [Compound 5f], in data set [1], the IC50 came to 1.85 µM and the “cell proliferation inhibitory activity compared with 5-FU, KB cells” value is “stronger cell proliferation inhibitory activity than 5-FU”. Further, in data set [2], the IC50 amounted to 71.6 µM.
`Cc1c[nH]c(=O)n2nc(-c3ccc(C(=O)O)cc3)nc12` [Compound 5n]: the IC50 in data set [1] and in data set [2] was greater than 100 µM in each case.
`Cc1c[nH]c(=O)n2c(-c3ccccc3)nnc12` [Compound 4b]: the IC50 in data set [1] and in data set [2] was greater than 100 µM throughout.
As for `Cc1c[nH]c(=O)n2nc(-c3ccc(Cl)c(Cl)c3)nc12` [Compound 5j], the IC50 in data set [1] turned out to be 13.4 µM; in data set [2] it was 15.2 µM.
Regarding `O=c1[nH]cc(F)c2nc(-c3ccccc3)nn12` [Compound 9d], the IC50 stood at 39 µM in data set [1] and 22.3 µM in data set [2].
Consider `Cc1c[nH]c(=O)n2nc(-c3ccccc3)nc12` [Compound 5b], for which the IC50 in data set [1] came out at 57.1 µM; in data set [2], 48.6 µM.
For `Cc1c[nH]c(=O)n2nc(-c3ccc(C#N)cc3)nc12` [Compound 5m] the same measures were 23.7 µM and greater than 100 µM.
For `Cc1c[nH]c(=O)n2nc(-c3ccccc3Br)nc12` [Compound 5k], the IC50 is 92.9 µM in data set [1] and 74.5 µM in data set [2].
The matching figures for `Cc1c[nH]c(=O)nc1NN=Cc1ccccc1` [Compound 3b]: greater than 100 µM and greater than 100 µM.
Consider `Cc1cnc(Cl)n2nc(-c3ccc([N+](=O)[O-])cc3)nc12` [Compound 6f], for which, in data set [1], the “cell proliferation inhibitory activity compared with 5-FU, KB cells” value is “stronger cell proliferation inhibitory activity than 5-FU”. Further, the “cell proliferation inhibitory activity compared with 5-FU, CCRF-HSB-2 cells” value in data set [2] is “stronger cell proliferation inhibitory activity than 5-FU”.
With `Nc1ccn([C@@H]2O[C@H](CO)[C@@H](O)[C@@H]2O)c(=O)n1` [AraC, 4-amino-1-β-D-arabinofuranosyl-2(1H)-one, reference compound], the IC50 was determined as 0.12 µM in data set [1] (Homo sapiens, 72 h) and 0.021 µM in data set [2] (Homo sapiens, 72 h).
On to `O=c1[nH]cc(F)c2nc(-c3ccc(Br)cc3)nn12` [Compound 9f], for which the figures for the IC50 in data set [1] and in data set [2] were 28.5 µM and 31.5 µM, respectively.
For `Cc1c[nH]c(=O)n2nc(-c3ccncc3)nc12` [Compound 5q] the same measures were 42.1 µM and 28.7 µM.
For the compound `Cc1c[nH]c(=O)n2nc(-c3ccc(F)cc3)nc12` [Compound 5h], the IC50 in data set [1] was 62.4 µM; in data set [2], 55.5 µM.
On to `Cc1c[nH]c(=O)n2nc(-c3ccc4ccccc4c3)nc12` [Compound 5r], for which the IC50 in data set [1] is greater than 100 µM; in data set [2] it was 99.1 µM.
Consider `Cc1c[nH]c(=O)n2nc(-c3ccccc3F)nc12` [Compound 5g], for which the IC50 is 62.4 µM in data set [1] and 48.8 µM in data set [2].
As for `Cc1c[nH]c(=O)n2nc(-c3cccnc3)nc12` [Compound 5p], the IC50 is 77.5 µM in data set [1] and 59.4 µM in data set [2].
Take `CCc1nc2c(F)c[nH]c(=O)n2n1` [Compound 9c]: the IC50 in data set [1] worked out at 48.5 µM; in data set [2], 58.2 µM.
With `Cc1cnc(Cl)n2nc(-c3ccccc3)nc12` [Compound 6b], the “cell proliferation inhibitory activity compared with 5-FU, CCRF-HSB-2 cells” value in data set [2] was “stronger cell proliferation inhibitory activity than 5-FU”.
The same measure, in the same setting: then `Cc1cnc(Cl)n2nc(-c3ccc(Cl)c(Cl)c3)nc12` [Compound 6j], with “stronger cell proliferation inhibitory activity than 5-FU”.
Consider `CCc1nnc2c(C)c[nH]c(=O)n12` [Compound 4a], for which the IC50 in data set [1] was 82 µM; in data set [2] it was 78 µM.
The matching figures for `O=c1[nH]cc(F)c2nc(-c3ccc(Cl)c(Cl)c3)nn12` [Compound 9e]: 28.9 µM and 23.6 µM.
For the compound `Cc1c[nH]c(=O)n2nc(-c3ccc(Cl)cc3)nc12` [Compound 5i], the values for the IC50 in data set [1] and in data set [2] were 50 µM and 41.8 µM, respectively.
In the case of `O=c1[nH]cc(F)c(=O)[nH]1` [Compound 5-FU, 5-fluorouracil, reference compound], the IC50 in data set [1] (Homo sapiens, 72 h) was found to be 2.24 µM; in data set [2] (Homo sapiens, 72 h), 2.74 µM.
Regarding `Cc1cnc(Cl)n2nc(-c3ccc(C#N)cc3)nc12` [Compound 6m], the “cell proliferation inhibitory activity compared with 5-FU, CCRF-HSB-2 cells” value in data set [2] is recorded as “stronger cell proliferation inhibitory activity than 5-FU”.
On to `N#Cc1ccc(-c2nc3c(F)c[nH]c(=O)n3n2)cc1` [Compound 9g], for which the IC50 in data set [1] is 43.8 µM; in data set [2], 41.3 µM.
The matching figures for `COc1ccc(-c2nc3c(C)c[nH]c(=O)n3n2)cc1` [Compound 5d]: greater than 100 µM and greater than 100 µM.
